{
  "source": "patent US8686224B2",
  "about": "“Plant defense signal peptides” (priority 2005, dated 2014)",
  "key": {"AtPEPR2": {"biological_target": "T1, AtPEPR2 (Arabidopsis thaliana, UniProt Q9FZ59)", "T1 construct": "the AtPEPR2 coding region was fused to the CaMV 35S promoter and introduced into tobacco suspension-cultured cells; expressed in transfected cells; host or cells: tobacco suspension-cultured cells, transformed by Agrobacterium, kanamycin-selected", "T1 sequence (Q9FZ59 27-1088)": "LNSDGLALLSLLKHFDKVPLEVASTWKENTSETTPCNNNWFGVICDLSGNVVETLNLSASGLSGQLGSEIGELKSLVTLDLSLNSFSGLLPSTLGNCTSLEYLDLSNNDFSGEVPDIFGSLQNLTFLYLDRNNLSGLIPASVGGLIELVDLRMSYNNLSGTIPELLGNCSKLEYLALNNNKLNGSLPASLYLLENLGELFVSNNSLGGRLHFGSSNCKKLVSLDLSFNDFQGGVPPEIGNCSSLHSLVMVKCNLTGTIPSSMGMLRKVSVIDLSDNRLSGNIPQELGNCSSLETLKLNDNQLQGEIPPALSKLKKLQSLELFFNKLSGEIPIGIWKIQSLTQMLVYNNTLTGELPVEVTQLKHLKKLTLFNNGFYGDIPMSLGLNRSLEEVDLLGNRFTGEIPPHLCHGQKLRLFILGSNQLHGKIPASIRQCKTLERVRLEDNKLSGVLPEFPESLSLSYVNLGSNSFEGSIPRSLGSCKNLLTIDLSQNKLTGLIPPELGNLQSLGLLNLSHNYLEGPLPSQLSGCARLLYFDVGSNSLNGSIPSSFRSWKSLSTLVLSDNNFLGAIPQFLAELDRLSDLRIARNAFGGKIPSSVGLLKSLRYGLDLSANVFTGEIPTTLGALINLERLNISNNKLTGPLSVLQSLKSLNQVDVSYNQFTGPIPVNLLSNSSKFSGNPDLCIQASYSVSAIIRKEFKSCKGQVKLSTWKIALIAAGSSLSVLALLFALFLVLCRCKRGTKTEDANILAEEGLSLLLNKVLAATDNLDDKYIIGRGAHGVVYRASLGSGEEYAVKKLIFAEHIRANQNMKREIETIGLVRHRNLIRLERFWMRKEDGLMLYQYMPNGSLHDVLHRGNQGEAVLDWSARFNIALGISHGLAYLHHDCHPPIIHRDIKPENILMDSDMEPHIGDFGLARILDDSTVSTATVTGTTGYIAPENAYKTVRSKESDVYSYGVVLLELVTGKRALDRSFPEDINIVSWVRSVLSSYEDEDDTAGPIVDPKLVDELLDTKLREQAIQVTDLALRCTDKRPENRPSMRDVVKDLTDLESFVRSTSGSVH", "test": "Medium alkalinization of transgenic tobacco cells expressing AtPEPR2", "type": "cell-based", "experimental": "To clarify whether AtPEPR2 binds to AtPep1, the AtPEPR2 coding region was fused to the CaMV 35S promoter and introduced into tobacco suspension-cultured cells by Agrobacterium. Tobacco cells expressing AtPEPR1 and GUS genes were also created as positive and negative controls, respectively. […] These transgenic lines were analyzed for alkalinizing activity as previously described (Pearce et al., Proc. Natl. Acad. Sci. USA 98, 12843-12847, 2001).\nThe response to all AtPep peptides in transgenic tobacco cells expressing either AtPEPR1 or AtPEPR2 was analyzed by the medium alkalinization assay."}, "[1]": {"system": "P. syringae pv. tomato DC3000 (Pst DC3000)", "test": "Pst DC3000 inoculation of Arabidopsis leaves with peptide pre-infiltration", "type": "in vivo, Pseudomonas syringae", "excerpt": "The resistance to P. irregulare requires the JA signaling pathway in Arabidopsis (Staswick et al, Plant J. 15: 747-754, 1998), and AtPep peptides induced PDF1.2, a marker gene for the JA response (Huffaker et al., Proc. Natl. Acad. Sci. USA 103: 10098-10103, Huffaker and Ryan, Proc. Natl. Acad. Sci. USA 104: 10732-10736, 2007). […] In order to examine this possibility, Arabidopsis plants were inoculated with P. syringae pv. tomato DC3000 (Pst DC3000) with or without AtPep1 pre-infiltration. Pst DC3000 was extracted from the infected leaves 4 days after infection and colony forming units (cfu/cm^2) were calculated. […] The reduction of Pst DC3000 growth was also not observed when the double mutant, pepr1-1/pepr2-1, was pre-infiltrated with AtPep1. […] Pre-infiltration of AtPep2-6 also attenuated Pst DC3000 growth to different degrees.\nTo assess the importance of AtPEPR1 and AtPEPR2 in the resistance to Pst DC3000 after infiltration of AtPep1, T-DNA insertional mutants were inoculated. When 1 μM AtPep1 was infiltrated into leaves one day prior to Pst DC3000 inoculation, the size of the necrotic regions were reduced in both wild type and single mutant lines, pepr1-1 and pepr2-1. […] Similar results were obtained when another set of mutant lines, pepr1-2, pepr2-2 and pepr1-2/pepr2-2, was used."}, "[2]": {"conditions": "AtPEPR2 expressing tobacco cells"}, "[3]": {"conditions": "1 μM one day prior, pepr1-1/pepr2-1"}},
  "note": "Where “and” joins values, the source holds several entries; their conditions need not be identical. Equal entries are not always repeated.",
  "data": [
    {"substance": "H-ATKVKAKQRGKEKVSSGRPGQHN-OH [AtPep1]", "values": [
      {"measurement": "EC50", "setting": "AtPEPR2", "value": "~250", "unit": "pM"},
      {"measurement": "alkalinization of the medium", "setting": "AtPEPR2; [2]", "value": "caused alkalinization of the media"},
      {"measurement": "maximal change", "setting": "AtPEPR2; [2]", "value": "1-1.2 pH units and 1.2 pH units"},
      {"measurement": "bacterial growth reduced to", "setting": "[1]; 1 μM infiltrated one day prior to inoculation, wild type", "value": "1/100"},
      {"measurement": "bacterial growth reduced to", "setting": "[1]; 1 μM one day prior, pepr1-1", "value": "1/25"},
      {"measurement": "colony growth in the double mutants", "setting": "[1]; [3]", "value": "no decrease in colony growth"},
      {"measurement": "symptom development in double mutants", "setting": "[1]; [3]", "value": "did not affect symptom development"},
      {"measurement": "bacterial growth reduced to", "setting": "[1]; 1 μM one day prior, pepr2-1", "value": "1/100"},
      {"measurement": "size of the necrotic regions", "setting": "[1]; 1 μM one day prior, wild type and single mutants pepr1-1 and pepr2-1", "value": "reduced"},
      {"measurement": "Pst DC3000 growth in double mutant pepr1-1/pepr2-1", "setting": "[1]; pre-infiltration", "value": "not observed"},
      {"measurement": "attenuation of Pst DC3000 in fad3,7,8, npr1-1 and sid2-2 mutants", "setting": "[1]; pre-infiltration", "value": "differentially diminished"},
      {"measurement": "effect on Pst DC3000 growth compared with flg22 pre-infiltration", "setting": "[1]; pre-infiltration, wild type", "value": "more effective than flg22 pre-infiltration"},
      {"measurement": "Pst DC3000 growth in leaves after pre-infiltration", "setting": "[1]; wild type, cfu/cm^2 4 days after infection, AtPep1 10 nM solution", "value": "reduced Pst DC3000 growth in leaves"}
    ]}
  ]
}
